From ChEMBL document CHEMBL1201862, “PubChem BioAssay data set” (2004)
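Protocol summary: plate cells (96-well), add compound at 5 concentrations, incubate 48 h, interpolate endpoints linearly. GI50 marks 50% less growth.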 Active and inactive are the calls of the source. Rule as the data show it: active = GI50 up to about 1.1 µM and inactive = higher.

Columns and labels:
Assay in all cases: NCI anticancer screen, dose series, 48 h
[1] = system: A498
[2] = system: A549
[3] = system: ACHN
[4] = system: CCRF-CEM
[5] = system: DMS-114
[6] = system: DMS-273
[7] = system: EKVX
[8] = system: HCT-116
[9] = system: HL-60
[10] = system: HOP-62
[11] = system: HOP-92
[12] = system: HT-29
[13] = system: IGROV-1
[14] = system: K562
[15] = system: KM12
[16] = system: M14
[17] = system: M19-MEL
[18] = system: MOLT-4
[19] = system: NCI-H23
[20] = system: NCI-H460
[21] = system: NCI-H522
[22] = system: OVCAR-5
[23] = system: OVCAR-8
[24] = system: RXF 393
[25] = system: RXF 631
[26] = system: SF-268
[27] = system: SF-295
[28] = system: SK-MEL-28
[29] = system: SK-OV-3
[30] = system: SNB-19
[31] = system: SR
[32] = system: TK-10
[33] = system: U-251
[34] = system: UACC-257
[35] = system: UACC-62
[36] = system: UO-31
[37] = system: CAKI-1
[38] = system: COLO 205
[39] = system: DLD-1
[40] = system: HCT-15
[41] = system: HOP-18
[42] = system: KM-20L2
[43] = system: LOX IMVI
[44] = system: Malme-3M
[45] = system: OVCAR-3
[46] = system: OVCAR-4
[47] = system: RPMI-8226
[48] = system: SF-539
[49] = system: SK-MEL-2
[50] = system: SK-MEL-5
[51] = system: SN12C
[52] = system: SNB-75
[53] = system: SNB-78
[54] = system: SW-620
[55] = system: XF498
[56] = system: 786-0
[57] = system: HCC 2998
[58] = system: LXFL 529
[59] = system: NCI-H226

c1ccc(-c2nc3sccn3n2)cc1
GI50 [1]: > 100 µM (inactive) | GI50 [2]: > 100 µM (inactive) | GI50 [3]: > 100 µM (inactive) | GI50 [4]: > 100 µM (inactive) | GI50 [5]: > 100 µM (inactive) | GI50 [6]: > 100 µM (inactive) | GI50 [7]: > 100 µM (inactive) | GI50 [8]: > 100 µM (inactive) | GI50 [9]: > 100 µM (inactive) | GI50 [10]: > 100 µM (inactive) | GI50 [11]: 74.3 µM (inactive) | GI50 [12]: > 100 µM (inactive) | GI50 [13]: > 100 µM (inactive) | GI50 [14]: > 100 µM (inactive) | GI50 [15]: > 100 µM (inactive) | GI50 [16]: > 100 µM (inactive) | GI50 [17]: > 100 µM (inactive) | GI50 [18]: > 100 µM (inactive) | GI50 [19]: > 100 µM (inactive) | GI50 [20]: > 100 µM (inactive) | GI50 [21]: > 100 µM (inactive) | GI50 [22]: > 100 µM (inactive) | GI50 [23]: > 100 µM (inactive) | GI50 [24]: > 100 µM (inactive) | GI50 [25]: > 100 µM (inactive) | GI50 [26]: > 100 µM (inactive) | GI50 [27]: > 100 µM (inactive) | GI50 [28]: > 100 µM (inactive) | GI50 [29]: > 100 µM (inactive) | GI50 [30]: > 100 µM (inactive) | GI50 [31]: > 100 µM (inactive) | GI50 [32]: > 100 µM (inactive) | GI50 [33]: > 100 µM (inactive) | GI50 [34]: > 100 µM (inactive) | GI50 [35]: > 100 µM (inactive) | GI50 [36]: > 100 µM (inactive)

O=C(O)C1=C(CO)Oc2cc3c(cc2C1c1ccc2c(c1)OCO2)OCO3 (stereo not given)
GI50 [2]: > 100 µM (inactive) | GI50 [3]: > 100 µM (inactive) | GI50 [37]: > 100 µM (inactive) | GI50 [4]: > 100 µM (inactive) | GI50 [38]: > 100 µM (inactive) | GI50 [39]: > 100 µM (inactive) | GI50 [5]: > 100 µM (inactive) | GI50 [6]: > 100 µM (inactive) | GI50 [7]: > 100 µM (inactive) | GI50 [8]: > 100 µM (inactive) | GI50 [40]: > 100 µM | GI50 [9]: > 100 µM (inactive) | GI50 [41]: > 100 µM (inactive) | GI50 [10]: > 100 µM (inactive) | GI50 [11]: > 100 µM (inactive) | GI50 [12]: > 100 µM (inactive) | GI50 [13]: > 100 µM (inactive) | GI50 [14]: > 100 µM (inactive) | GI50 [42]: > 100 µM (inactive) | GI50 [43]: > 100 µM (inactive) | GI50 [16]: > 100 µM (inactive) | GI50 [17]: > 100 µM (inactive) | GI50 [18]: > 100 µM (inactive) | GI50 [44]: > 100 µM (inactive) | GI50 [19]: > 100 µM (inactive) | GI50 [20]: > 100 µM (inactive) | GI50 [45]: > 100 µM (inactive) | GI50 [46]: > 100 µM (inactive) | GI50 [23]: > 100 µM (inactive) | GI50 [47]: > 100 µM (inactive) | GI50 [24]: > 100 µM (inactive) | GI50 [25]: > 100 µM (inactive) | GI50 [27]: > 100 µM (inactive) | GI50 [48]: > 100 µM (inactive) | GI50 [28]: > 100 µM (inactive) | GI50 [49]: > 100 µM (inactive) | GI50 [50]: > 100 µM (inactive) | GI50 [29]: > 100 µM (inactive) | GI50 [51]: > 100 µM (inactive) | GI50 [30]: > 100 µM (inactive) | GI50 [52]: > 100 µM (inactive) | GI50 [53]: > 100 µM (inactive) | GI50 [54]: > 100 µM (inactive) | GI50 [32]: > 100 µM (inactive) | GI50 [33]: > 100 µM (inactive) | GI50 [34]: > 100 µM (inactive) | GI50 [35]: > 100 µM (inactive) | GI50 [36]: > 100 µM (inactive) | GI50 [55]: > 100 µM (inactive)

CC(C)(C)c1ccccc1NS(=O)(=O)c1ccccc1
GI50 [56]: > 100 µM (inactive) | GI50 [1]: > 100 µM (inactive) | GI50 [2]: 59.8 µM (inactive) | GI50 [3]: > 100 µM (inactive) | GI50 [37]: 64 µM (inactive) | GI50 [4]: 62.1 µM (inactive) | GI50 [5]: 49.9 µM (inactive) | GI50 [6]: > 100 µM (inactive) | GI50 [7]: > 100 µM (inactive) | GI50 [57]: > 100 µM (inactive) | GI50 [8]: 48 µM (inactive) | GI50 [40]: > 100 µM | GI50 [9]: 36.9 µM (inactive) | GI50 [10]: > 100 µM (inactive) | GI50 [12]: 66.7 µM (inactive) | GI50 [13]: > 100 µM (inactive) | GI50 [14]: 44.9 µM (inactive) | GI50 [42]: 94 µM (inactive) | GI50 [15]: 65 µM (inactive) | GI50 [58]: > 100 µM (inactive) | GI50 [16]: 96.2 µM (inactive) | GI50 [17]: > 100 µM (inactive) | GI50 [18]: 38 µM (inactive) | GI50 [44]: > 100 µM (inactive) | GI50 [59]: 21.9 µM (inactive) | GI50 [19]: > 100 µM (inactive) | GI50 [20]: 92 µM (inactive) | GI50 [45]: 71.4 µM (inactive) | GI50 [46]: 62.4 µM (inactive) | GI50 [22]: > 100 µM (inactive) | GI50 [23]: > 100 µM (inactive) | GI50 [47]: 60.8 µM (inactive) | GI50 [24]: 76.7 µM (inactive) | GI50 [25]: > 100 µM (inactive) | GI50 [27]: 86.1 µM (inactive) | GI50 [48]: > 100 µM (inactive) | GI50 [28]: > 100 µM (inactive) | GI50 [49]: > 100 µM (inactive) | GI50 [50]: 42.4 µM (inactive) | GI50 [29]: > 100 µM (inactive) | GI50 [51]: 62.4 µM (inactive) | GI50 [52]: > 100 µM (inactive) | GI50 [53]: > 100 µM (inactive) | GI50 [54]: > 100 µM (inactive) | GI50 [32]: > 100 µM (inactive) | GI50 [33]: > 100 µM (inactive) | GI50 [34]: 45.1 µM (inactive) | GI50 [35]: > 100 µM (inactive) | GI50 [36]: 30.1 µM (inactive) | GI50 [55]: > 100 µM (inactive)
